Measured values published in patent US6310091A, “Fungicidal saponin, CAY-1, and isolation thereof from Capsium species fruit” (The United States of America as represented by the …, priority 2000, dated 2001).
Where two headings read alike, the source gives them in different places.

Legend:
Pneumocystis carinii = experiment: Effect on Pneumocystis carinii viability (ATP-driven bioluminescent assay); format: cell-based; conditions: Pneumocystis carinii, read-out: Percent of Control Mean
Method: 3. Pneumocystis carinii. The effect of CAY-1 on Pneumocystis carinii was determined as described previously [Cushion et al., Antimicrob. Agents Chemother., 1997, 41:379-384, herein incorporated by reference]. This assay is based on an ATP-driven bioluminescent reaction and was used to determine the concentration of CAY-1 which decreased the P. carinii ATP pools.

Candida species = conditions: a number of Candida species; cited from earlier work

Compound: CC1(C)S[C@@H]2[C@H](NC(=O)[C@H](N)c3ccccc3)C(=O)N2[C@H]1C(=O)O [Ampicillin, reference compound]
- activity at 29 µM (Pneumocystis carinii; 24 h, Day 1, 10 μg/ml, 29 μM): 96%
- activity at 29 µM (Pneumocystis carinii; 48 h, Day 2, 10 μg/ml, 29 μM): 94.7%
- activity at 29 µM (Pneumocystis carinii; 72 h, Day 3, 10 μg/ml, 29 μM): 94.8%

Compound: N=C(N)c1ccc(OCCCCCOc2ccc(C(=N)N)cc2)cc1 [Pentamidine, reference compound]
- activity at 2.9 µM (Pneumocystis carinii; 24 h): 46.2%
- activity at 29 µM (Pneumocystis carinii; 24 h): 5.4%
- activity at 2.9 µM (Pneumocystis carinii; 48 h): 22%
- activity at 29 µM (Pneumocystis carinii; 48 h): 3.5%
- activity at 2.9 µM (Pneumocystis carinii; 72 h): 3.9%
- activity at 29 µM (Pneumocystis carinii; 72 h): 1.2%

Compound: CC1(C)[C@@H](O[C@@H]2OC[C@H](O[C@@H]3O[C@H](CO)[C@@H](O)[C@H](O)[C@H]3O[C@@H]3OC[C@H](O)[C@H](O)[C@H]3O)[C@H](O)[C@H]2O[C@@H]2O[C@H](CO)[C@@H](O)[C@H](O)[C@H]2O)CC[C@]2(C)[C@H]3CC[C@]45OC[C@@]6(CC[C@](C)(C=O)C[C@H]64)[C@H](O)C[C@@]5(C)[C@]3(C)CC[C@@H]12 [deglucocyclamin]
- inhibitory properties (Candida species): inhibitory properties

Compound: cyclainorin
- inhibitory properties (Candida species): inhibitory properties
